Assay results taken from patent US20240208898A1, “ENAMINE N-OXIDES: SYNTHESIS AND APPLICATION TO HYPOXIA-RESPONSIVE PRODRUGS AND IMAGING AGENTS” (DANA-FARBER CANCER INSTITUTE, INC., priority 2021, published 2024).
“Also recorded” adds a separate entry of the source.

Test system: BxPC-3 xenografts
Test: Immunofluorescence tissue staining of tumor slices
Assay type: in vivo, mice
Experimental: All animal experiments were performed according to procedures and protocols approved by the Dana-Farber Cancer Institute Institutional Animal Care and Use Committee. Bx-PC3 cells were grown to confluency in antibiotic-free RPMI supplemented with 10% FBS, trypsinized, and washed three times with ice cold PBS (50 mL). Cells were resuspended in PBS at a concentration of 1.0×10^7 cells per 100 μL. 8-week old, female, homozygous NU/J mice (Jackson Laboratory) were subcutaneously injected with 1.0×10^7 Bx-PC3 cells over the right hind flank under isoflurane anesthesia. Experiments were performed when tumors reached 1000 mm^3 in size.
Mice were intraperitoneally injected with a 200 μL bolus of 25.8 mM pimonidazole and enamine N-oxide probe in 0.9% saline. Two min prior to sacrifice, mice were intravenously injected with 15 mg/kg Hoechst 33342 in 100 μL of PBS. After 1 hour, mice were sacrificed by cervical dislocation under isoflurane anesthesia. Tumors were resected and fixed in 4% paraformaldehyde in PBS for 24 hours at 4° C. with shaking. Tumors were then stored in 70% ethanol/water and submitted to the Rodent Histopathology Core at the Dana-Farber/Harvard Cancer Center for paraffin sectioning and H&E staining on glass slides. Paraffin embedded slices on glass slides were first rehydrated by successively immersing in xylenes twice for 10 minutes, 100% ethanol twice for 10 minutes, 95% ethanol/water once for 5 minutes, 70% ethanol/water for 5 minutes, 50% ethanol/water for 5 minutes, water three times for 20 seconds, and ice cold PBS+0.3% Triton X-100 once for 10 minutes. For slices to be stained by HIF1α and CD31, slides were then incubated at 90° C. in 10 mM citrate, pH 6.0 for 15 minutes. After 15 minutes, the solution was removed from heat and allowed to cool to room temperature. […] Slices were then imaged using a widefield fluorescence inverted microscope (Nikon Ti Eclipse) at the Dana-Farber Confocal and Light Microscopy Core according to the settings listed in the “General biological instrumentation” section.

C#CCCCCC(F)/C=C/[N+]([O-])(CC)CC (stereo not drawn) [probe 39, (E)-N,N-diethyl-3-fluoronon-1-en-8-yn-1-amine oxide]
localization in tumor tissue slices vs CD31 endothelial cell marker (intraperitoneal, CD31, DAPI): vasculature is primarily localized in regions distal to regions that are labeled well by enamine N-oxide 39 staining
localization in tumor tissue slices vs hypoxia markers (intraperitoneal, markers GLUT1, HIF1α, CAIX, pimonidazole): strong correlation; also recorded: co-localized with the GLUT1 and pimonidazole hypoxia markers

C#CCN(CCCCCC(F)/C=C/[N+]([O-])(CC)CC)C(=O)c1ccc(C2=c3cc4c(cc3[Si](C)(C)c3cc5c(cc32)CCN5C)=[N+](C)CC4)c(C)c1 (stereo not drawn) [probe 42, Si700-enamine N-oxide]
co-localization with pimonidazole in tumor tissue slices (tumor of mouse imaged by NIR probe, CuAAC fluorescent labeling): robust co-localization
